In patent publication US20220196635A1, “Fibrosis Assay” (Georgia Tech Research Corporation, priority 2020, published 2022):

Key:
[1] = tested on: human primary lung fibroblasts (NHLF, IPF) in fibrin micro-scaffolds; assay: Contracting scar-in-a-drop fibroplasia assay (final projected area of cell-ECM spheroids); type: cell-based
Description: Human primary lung fibroblasts were used in all experiments presented in this paper. Unless otherwise noted, experiments utilized normal human lung fibroblasts (NHLF B lot #0000580583; Lonza) from a person with a history of smoking. For experiments evaluating donor variability, the following cells were utilized: NHLF A (NHLF lot #0000608197; Lonza) from a person, IPF A (IPF lot #0000627840; Lonza) from a person, and IPF B (IPF lot #6F5002; Lonza) from a person. All cells were cultured in fibroblast growth media (FGM; Lonza). Cells were passaged at 80-90% confluence and were sub-cultured in 1:3 ratios by trypsinization. When at the desired confluence, cells were washed with PBS and 0.05% trypsin solution was added to the flask. Cells were incubated for 2 min, and then harvested and centrifuged ([…], 5 min) in a conical tube. The supernatant was aspirated and the cell pellet was re-suspended in FBS-free culture media. When used in fibrin degradation experiments, cells were re-suspended at 2× the final desired concentration (2500 cells/ul unless otherwise indicated). To promote collagen production and contraction in addition to fibrin degradation, serum (bovine or human) were added at 2% or higher up to about 10%. Higher cell densities (about 2500 cells/ul and higher up to about 10,000 cells/ul) also promote collagen production. All experiments were conducted with cells at or below passage 8 except for high passage experiments conducted at passage 12. In all experiments, media was changed every 48 hours and any media additives (plasminogen, TGF-β1, drugs, etc.,) were included.
ATPS printing of fibrin micro-scaffolds has previously described above. Briefly, working solutions of PEG with 0.1 U/mL of thrombin were warmed to 37° C. and pipetted into a 96-well plate. For production of droplets, fibrinogen-DEX solutions with cell suspension were maintained at 37° C. and 4 μl per assay (unless otherwise noted) was pipetted directly into the PEG-thrombin media using a semi-automated repeater pipette (Repeater E3X; Eppendorf). Following dispensing of the DEX phase, the plates were placed in an ambient air incubator at 37° C. for 30 min to allow the thrombin to enzymatically crosslink the fibrinogen into a fibrin matrix (FIG. 6A). The PEG-enriched media was removed using a 12-channel micropipette and replaced with 100 μl of fully supplemented media in each well. When applicable, this media addition was supplemented with stimuli as detailed in example 17 below. For the duration of each experiment, assay plates were imaged every 2 hours at 4× with an automated cell culture monitoring system (Incucyte S3; Sartorius). As the assay proceeded, the fibroblasts progressively remodeled the fibrin scaffold as illustrated in FIG. 6C.
After each experiment, the final projected areas of the cell-ECM spheroids were determined from brightfield images taken at the final time point using a benchtop imaging system (2× objective; EVOS M7000; ThermoFisher). These images were then segmented through a process of pixel classification, thresholding, and morphological filtering in order to isolate the cell-ECM construct area from the background.
Pixel classification implemented Ilastic, a freely available image classification tool developed by the European Molecular Biology Laboratory. Ilastik's pixel classification utility implements a random forest classifier for quick and robust segmentation. In order to train the classifier, 10 characteristic images were selected to include different stages of ECM remodeling. In this step, each individual pixel is assigned a probability for belonging to layers for the background or the cell-ECM construct. Ilastik enables interactive training of the random forest classifier via user annotations of the training images. […]

[2] = tested on: normal human lung fibroblasts (NHLF); assay: mRNA quantification by qPCR in fibrin remodeling assay; type: cell-based
Description: RNA extraction and qPCR: Cells from 12 wells at the indicated time points were pooled together per condition and lysed with 350 μl of RLT lysis buffer. RNA was extracted using a RNeasy Mini Kit (Qiagen, #74104) and was performed according to the manufacturer's instructions. RNA sample concentration was measured using a NanoDrop OneC Spectrophotometer (Thermo Fisher Scientific). A High-Capacity RNA-to-cDNA Kit (Applied Biosystems, #4387406) was used for reverse transcription; 400 ng of RNA for each sample was mixed with 10 μl primer, 1 μl reverse transcriptase enzyme and nuclease-free water to bring the final reaction volume to 20 μl. The reaction was performed for 60 minutes at 37° C., followed by 5 minutes at 95° C. using a Veriti Thermal Cycler (Applied Biosystems). qPCR was performed using a QuantStudio 3 Real-Time PCR System (Applied Biosystems). Each reaction consisted of 1 μl cDNA, 10 μl TaqMan Fast advanced master mix (Applied Biosystems, #4444556), 1 μl primer, and 6 μl nuclease-free water. TaqMan primers (Applied Biosystems) for smooth muscle actin (ACTA2, Hs00426835_g1), plasminogen activator (PLAT, Hs00263492_m1), Plasminogen activator inhibitor-1 (SERPINE1, Hs00167155_m1), collagen type I (COL1A1, Hs00164004_m1), plasminogen activator (PLAU, Hs01547054_m1), and Ki67 (MKI67, Hs01032443_m1) were utilized. The QuantStudio 3 was programmed with a 2-minute hold at 95° C., followed by 40 cycles of 95° C. for 1 second and 60° C. for 20 seconds. Each sample was run with biological triplicates. The relative gene expression was calculated using the […], with glyceraldehyde-3-phosphate dehydrogenase as the housekeeping gene (GAPDH, Hs02786624_g1). Fold changes were normalized with respect to the time zero timepoint with no TGF-β1 stimulation and are reported as the mean with the error bars representing the minimum and maximum values.

[3] = TGF-β1 stimulation compared to the control time series

TGF-β1: Human Recombinant TGF-β1 (Peprotech), pro-fibrotic, anti-fibrinolytic stimulus
projected area of the final contracted cell-ECM spheroid ([1]; TGF-β1 0, 0.5, 2 ng/mL, NHLF): significant dose-dependent increase | contraction of cell-ECM construct ([1]; TGF-β1 10 ng/mL (highest concentration)): did not contract within the duration of the experiment | 50% contraction time ([1]; TGF-β1 stimulation, kernel density estimates (FIG. 12A)): increases in both 50% contraction time and final assay area | COL1A1 mRNA expression ([2]; TGF-β1 dose): dose-dependent increase in COL1A1 | ACTA2 (aSMA) mRNA expression ([2]; TGF-β1 dose and time course): increased expression for the highest concentration of TGF-β1 | SERPENE1 (PAI-1) mRNA expression ([2]; TGF-β1 dose and time course): significant time-dependent and dose-dependent increases in expression | tPA (PLAT) mRNA expression [2, 3]: relative downregulation | uPA (PLAU) mRNA expression [2, 3]: relative upregulation | MKI67 mRNA expression (proliferation marker) ([2]; higher concentrations of TGF-β1): significantly upregulated
